Assay results as given in patent US12516056B2, “Compounds for inhibition of janus kinase 1” (MANKIND PHARMA LTD., priority 2019, dated 2026).
Read-outs that look alike come from different tables or passages of the source.

Columns and labels:
[1] = biological target: T1, Recombinant JAK3 (Homo sapiens, UniProt P52333); experiment: JAK biochemical assay (LANCE Ultra TR-FRET), JAK3
T1 construct: purchased Carna Biosciences
T1 sequence (P52333 1-1124): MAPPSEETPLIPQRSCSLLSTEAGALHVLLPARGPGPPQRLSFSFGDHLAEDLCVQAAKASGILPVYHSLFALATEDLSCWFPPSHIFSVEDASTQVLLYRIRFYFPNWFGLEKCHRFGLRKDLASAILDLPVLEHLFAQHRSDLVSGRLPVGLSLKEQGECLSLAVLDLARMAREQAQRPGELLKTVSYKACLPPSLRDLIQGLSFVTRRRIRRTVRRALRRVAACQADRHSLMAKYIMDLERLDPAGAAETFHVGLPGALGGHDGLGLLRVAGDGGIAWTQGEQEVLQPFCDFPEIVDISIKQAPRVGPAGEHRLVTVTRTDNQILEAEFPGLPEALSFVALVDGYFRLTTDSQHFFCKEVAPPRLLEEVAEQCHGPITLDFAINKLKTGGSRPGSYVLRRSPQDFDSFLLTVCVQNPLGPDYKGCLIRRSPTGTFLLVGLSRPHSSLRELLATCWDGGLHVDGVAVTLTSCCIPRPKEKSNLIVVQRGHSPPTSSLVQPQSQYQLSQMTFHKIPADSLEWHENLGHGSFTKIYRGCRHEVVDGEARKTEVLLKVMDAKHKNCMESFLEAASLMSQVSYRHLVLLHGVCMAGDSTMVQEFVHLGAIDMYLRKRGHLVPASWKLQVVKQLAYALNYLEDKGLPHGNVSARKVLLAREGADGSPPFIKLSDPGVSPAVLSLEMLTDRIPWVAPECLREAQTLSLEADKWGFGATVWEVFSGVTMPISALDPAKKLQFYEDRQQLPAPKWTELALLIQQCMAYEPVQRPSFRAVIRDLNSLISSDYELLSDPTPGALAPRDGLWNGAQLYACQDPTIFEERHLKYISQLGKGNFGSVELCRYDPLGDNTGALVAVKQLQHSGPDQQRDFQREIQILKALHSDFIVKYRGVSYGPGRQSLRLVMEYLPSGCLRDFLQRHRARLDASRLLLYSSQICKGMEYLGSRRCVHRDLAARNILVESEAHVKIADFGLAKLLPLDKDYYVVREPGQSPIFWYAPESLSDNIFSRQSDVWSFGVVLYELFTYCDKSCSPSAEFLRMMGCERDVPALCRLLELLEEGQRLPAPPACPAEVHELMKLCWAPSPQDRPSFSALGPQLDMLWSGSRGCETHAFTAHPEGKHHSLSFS
In short: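 TR-FRET read-out of ULight substrate phosphorylation by recombinant kinase gives % inhibition relative to vehicle. The assay buffer is HEPES pH 7.5 with EGTA, MgCl2, DTT and Tween-20.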

[2] = system: STAT5 phosphorylation by GMCSF in TF-1 cells; experiment: JAK cellular assay: STAT5 phosphorylation by GMCSF in TF-1 cells (HTRF); type: cell-based; conditions: Homo sapiens, TF-1 cells
In short: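 Phospho-STAT3 (IL-6, 30 ng/ml) and phospho-STAT5 (GMCSF, 5 ng/ml) read by HTRF in lysates after 20 min cytokine exposure, minus unstimulated-cell background. Cells were serum-starved overnight, plated at 120,000/well, given compound 30 min at 37 °C beforehand; DMSO 0.2% final.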

[3] = system: oxazolone induced colitis; experiment: Murine model of oxazolone induced colitis; type: in vivo, Male BALB/c mice; conditions: 30 mpk, PO, BID
[4] = read-out: Biochemical IC50 (nM) JAK3
[5] = GM-CSF stimulation, read-out: Cell based IC50 (μM) TF-1/GM-CSF

CN1CCC(C(O)(c2ccc(-n3cc(-c4ccnc5[nH]cnc45)cn3)nc2)C(F)(F)F)CC1 (stereo not shown) [Example 1133, 1-(6-(4-(3H-imidazo[4,5-b]pyridin-7-yl)-1H-pyrazol-1-yl)pyridin-3-yl)-2,2,2-trifluoro-1-(1-methylpiperidin-4-yl)ethanol] showed an IC50 [1, 4] of 100 nM, an IC50 [2, 5] of over 10 µM and an IC50 ([2]; GMCSF 5 ng/ml, pSTAT5 HTRF, read-out: Cell Based Assay (μM) TF-1/GMCSF/pSTAT5) of over 10 µM.

With CC(C)NC(=O)CC[C@@H](c1ccc(-n2cc(-c3ccnc4[nH]cnc34)cn2)nc1)C(F)(F)F [Example 1215, (S)-4-(6-(4-(3H-imidazo[4,5-b]pyridin-7-yl)-1H-pyrazol-1-yl)pyridin-3-yl)-5,5,5-trifluoro-N-isopropylpentanamide] the IC50 [1, 4] was 11 nM, the IC50 ([1]; recombinant JAK3, TR-FRET, read-out: Biochemical Assay (μM) JAK3) was under 100 nM and the IC50 [2, 5] was over 10 µM. The “efficacy in comparison to Filgotinib (colitis model)” value [3] was “better efficacy”.
